# Where a name gives a salt, the structure may show the parent alone.
# Experiments:
# [1] = Boiling point of fragrance raw materials
# [2] = LogP of fragrance raw materials
# [3] = Example 1, fragrances for long lasting performance, head range 1.00 a 230.0
# [4] = Example 1, fragrances for long lasting performance, head range 1.00 a 3.00
# [5] = Example 2, fragrances for thermo boost performance, head range 230.1 a 300.0
# [6] = Example 2, fragrances for thermo boost performance, head range 0.00 a 3.00
compound,measurement,setting,value
CC1=CC(C)C(C=O)CC1 (centres unmarked) [LIGUSTRAL],Boiling Point,[1]; [3],200.5 °C
CCCCCC#CC(=O)OC [METHYL HEPTIN CARBONATE],Boiling Point,[1]; [3],205.3 °C
same,logP,[2]; [4],2.6
CC(CC=O)c1ccccc1 (centres unmarked) [TRIFERNAL],Boiling Point,[1]; [3],228.4 °C
same,logP,[2]; [4],2.45
CCOc1cc(COC)ccc1O [METHYL DIANTILIS],Boiling Point,[1]; [5],282.4 °C
same,logP,[2]; [6],1.61
CCCCCC1CCC(=O)O1 (centres unmarked) [ALDEHYDE C18 SO-CALLED],Boiling Point,[1]; [5],265.5 °C
O=COCCc1ccccc1 [PHENYLETHYL FORMATE],Boiling Point,[1]; [3],217.3 °C
same,logP,[2],2.02
COc1cc(C)ccc1O [METHYL GUAIACOL-4],Boiling Point,[1]; [5],230.4 °C
CC(=O)OC1CCCCC1 [CYCLOHEXYL ACETATE],Boiling Point,[1]; [3],179.4 °C
same,logP,[2],2.64
CCCCCOC(C)=O [AMYL ACETATE N],Boiling Point,[1]; [3],148.4 °C
"COC(=O)c1ccccc1O [METHYL SALICYLATE PF, METHYL SALICYLATE]",Boiling Point,[1]; [5],252.2 °C
same,logP,[2],2.6
CCCC1CCC(=O)O1 (centres unmarked) [HEPTALACTONE GAMMA],Boiling Point,[1]; [5],230.3 °C
same,logP,[2]; [6],1.09
MENTHONE L/ISOMENTHONE D,Boiling Point,[1]; [3],213 °C
same,logP,[2]; [4],2.87
"O=Cc1ccccc1 [BE[…], BENZALDEHYDE]",Boiling Point,[1]; [3],181.2 °C
same,logP,physchem,1.71
CC(=O)OCCC(C)C [ISOAMYL ACETATE],Boiling Point,[1]; [3],134.9 °C
same,logP,[2],2.26
COC(=O)Cc1ccccc1 [METHYL PHENYLACETATE],Boiling Point,[1]; [3],215.6 °C
same,logP,physchem,2.08
CC1(C)[C@@H]2CC[C@@]1(C)[C@H](O)C2 (racemic) [ISOBORNEOL],Boiling Point,[1]; [3],210 °C
CCC/C=C/C=O [HEXENAL TRANS-2],Boiling Point,[1]; [3],139.2 °C
same,logP,[2]; [4],1.58
CC=Cc1ccc(O)c(OC)c1 [ISOEUGENOL],Boiling Point,[1]; [5],270.6 °C
same,logP,[2],2.65
"Cc1csc(C(C)C)n1 [ISOPROPYL METHYL THIAZOLE-2,4]",Boiling Point,[1]; [3],198 °C
CC(=O)OCc1ccccc1 [BENZYL ACETATE],Boiling Point,[1]; [3],215.6 °C
"CC/C=C/CC/C=C/CO [NONADIENOL-2,6]",Boiling Point,[1]; [5],231.6 °C
same,logP,[2]; [6],2.87
CC/C=C\CCOC(C)OCC (centres unmarked) [LEAF ACETAL],Boiling Point,[1]; [3],201.4 °C
same,logP,[2]; [4],2.95
CC/C=C\CCOC(C)=O [HEXENYL ACETATE CIS-3],Boiling Point,[1]; [3],176.6 °C
CCCCCCC1CCC(=O)O1 (centres unmarked) [DECALACTONE GAMMA],Boiling Point,[1]; [5],281.7 °C
same,logP,[2]; [6],2.57
CCOC(=O)c1ccccc1 [ETHYL BENZOATE],Boiling Point,[1]; [3],215.6 °C
same,logP,physchem,2.32
COC(OC)C(C)c1ccccc1 (centres unmarked) [HYDRATROPIC ALDEHYDE DIMETH.ACET],Boiling Point,[1]; [3],227.2 °C
CCCCCCOC(C)=O [HEXYL ACETATE],Boiling Point,[1]; [3],170.1 °C
O=CCc1ccccc1,Boiling Point,[1]; [3],201.5 °C
same,logP,[2],1.54
CCCC1CCCC(=O)O1 (centres unmarked) [OCTALACTONE DELTA],Boiling Point,[1]; [5],250 °C
CCOc1cc(C=O)ccc1O [ETHYL VANILLIN],logP,physchem,1.55
CCOC(=O)Cc1ccccc1 [ETHYL PHENYL ACETATE],Boiling Point,[1]; [5],234.3 °C
same,logP,physchem,2.57
CC12CCC(C1)C(C)(C)C2O (centres unmarked) [FENCHOL],Boiling Point,[1]; [3],210 °C
"CC(=O)CCC=C(C)C [METIL-6-HEPTEN-5-ONA-2 SUPRA, METIL-6-HEPTEN-5-ONA-2]",Boiling Point,[1]; [3],164.4 °C
CC(=O)OC(C)c1ccccc1 (centres unmarked) [STYRALYL ACETATE],Boiling Point,[1]; [3],223.1 °C
O=COCc1ccccc1 [BENZYL FORMATE],Boiling Point,[1]; [3],197.8 °C
same,logP,[2],1.53
COc1ccc(C)cc1 [CRESYL METHYL ETHER PARA],Boiling Point,[1]; [3],170.8 °C
"CC/C=C\CC/C=C/C=O [NONADIENAL TRANS,CIS-2,6]",Boiling Point,[1]; [3],208.7 °C
C=CCOC(=O)COCCC(C)C [ALLYL AMYL GLYCOLATE],Boiling Point,[1]; [3],217.7 °C
CC(=O)OCC=C(C)C [PRENYL ACETATE],Boiling Point,[1]; [3],149.2 °C
same,logP,[2],2.18
CC/C=C\CCOC(=O)OC [LEAFOVERT®],Boiling Point,[1]; [3],213 °C
same,logP,[2]; [4],2.47
"c1ccc2[nH]ccc2c1 [INDOLE FF, INDOLE]",Boiling Point,[1]; [5],250 °C
same,logP,physchem,2.05
CC(=O)OCC(C)C [ISOBUTYL ACETATE],Boiling Point,[1]; [3],111.7 °C
CCCCC1CCC(=O)O1 (centres unmarked) [OCTALACTONE GAMMA],Boiling Point,[1]; [5],248.4 °C
CCOC(=O)COc1ccccc1 [ETHYL PHENOXY ACETATE],Boiling Point,[1]; [5],252.8 °C
CC1=CC(C)C(C=O)CC1 (centres unmarked) [VERTOCITRAL],Boiling Point,[1]; [3],200.5 °C
CC(C)(CO)Cc1ccccc1 [MUGUETALCOHOL],Boiling Point,[1]; [5],260.6 °C
MENTHONE/ISOMENTHONE [MENTHONE/ISOMENTHONE RAC.],Boiling Point,[1]; [3],213 °C
same,logP,[2]; [4],2.87
"COc1nccnc1CC(C)C [ISOBUTYL METHOXYPYRAZINE-3,2]",Boiling Point,[1]; [5],236.5 °C
CC(=O)c1ccc(C)cc1 [METHYL ACETOPHENONE PARA],Boiling Point,[1]; [3],209.7 °C
same,logP,[2]; [4],2.22
CCCCCC(=O)OCC [ETHYL CAPROATE],Boiling Point,[1]; [3],170.1 °C
"COc1ccc(C=O)cc1 [ANISIC ALDEHYDE PURE, ANISIC ALDEHYDE]",Boiling Point,[1]; [3],221.6 °C
CC(=O)c1nccs1 [ACETYL THIAZOLE-2],Boiling Point,[1]; [3],209 °C
CCCCCC(=O)CC [OCTANONE-3],Boiling Point,[1]; [3],163.6 °C
"OCCc1ccccc1 [PHENYLETHYL ALCOHOL BA FREE, PHENYLETHYL ALCOHOL]",Boiling Point,[1]; [3],224.9 °C
same,logP,[2],1.57
COC(Cc1ccccc1)OC,Boiling Point,[1]; [3],219.8 °C
same,logP,[2],1.93
O=Cc1ccc2c(c1)OCO2 [HELIOTROPIN],Boiling Point,[1]; [5],257 °C
same,logP,[2]; [6],1.77
COC(=O)c1ccccc1 [METHYL BENZOATE],Boiling Point,[1]; [3],195.9 °C
same,logP,[2],1.83
CCCC(C)C(=O)OCC (centres unmarked) [MANZANATE],Boiling Point,[1]; [3],157.1 °C
same,logP,[2]; [4],2.76
CCCCOC(C)=O [BUTYL ACETATE],Boiling Point,[1]; [3],125.8 °C
same,logP,[2],1.85
"COc1nccnc1C(C)C [ISOPROPYL METHOXYPYRAZINE-2,3]",Boiling Point,[1]; [3],217.8 °C
O=c1ccc2ccccc2o1 [COUMARIN],Boiling Point,[1]; [5],290.7 °C
"COC(=O)c1ccccc1N [METHYL ANTHRANILATE (=130085), METHYL ANTHRANILATE]",Boiling Point,[1]; [5],263.6 °C
same,logP,physchem,2.26
COc1cc(C=O)ccc1O [VANILLIN],Boiling Point,[1]; [5],274.3 °C
same,logP,[2],1.05
CCCCCCC(C)=O [OCTANONE-2],Boiling Point,[1]; [3],163.6 °C
"COc1ccc(C(C)=O)cc1 [ACETANISOLE CRYST., ACETANISOLE]",Boiling Point,[1]; [3],229.5 °C
CCCCCCCC=O [ALDEHYDE C 8],Boiling Point,[1]; [3],176 °C
same,logP,[2]; [4],2.78
Cc1ccc(O)cc1 [CRESOL PARA],Boiling Point,[1]; [3],190.8 °C
same,logP,[2]; [4],2.06
CCCCCC1CCCC(=O)O1 (centres unmarked) [DECALACTONE DELTA],Boiling Point,[1]; [5],283.2 °C
same,logP,[2]; [6],2.57
CCc1occc(=O)c1O [ETHYL MALTOL],Boiling Point,[1]; [5],283.4 °C
same,logP,[2]; [6],0.3
CCOC(=O)CC [ETHYL PROPIONATE],Boiling Point,[1]; [3],102.3 °C
same,logP,[2],1.36
CCCCCC(=O)OC [METHYL CAPROATE],Boiling Point,[1]; [3],148.4 °C
same,logP,[2],2.34
CC(=O)c1ccccc1 [ACETOPHENONE],Boiling Point,[1]; [3],189.8 °C
ISOOCTANONE,Boiling Point,[1]; [3],150.5 °C
same,logP,[2]; [4],2.15
CC(=O)C1CCCC(C)(C)C1 (centres unmarked) [HERBAC],Boiling Point,[1]; [3],197.4 °C
C=CCOC(=O)COC1CCCCC1 [CYCLOGALBANAT®],Boiling Point,[1]; [5],254.9 °C
CCCCC1CCCC(=O)O1 (centres unmarked) [NONALACTONE DELTA],Boiling Point,[1]; [5],267 °C
same,logP,[2]; [6],2.08
CCCC(=O)OCC [ETHYL BUTYRATE],Boiling Point,[1]; [3],125.8 °C
same,logP,[2],1.85
